The source of these data is patent US20250214973A1, “1,4,5-TRISUBSTITUTED-1,2,3-TRIAZOLES AND USES THEREOF” (UNIVERSITY OF PUERTO RICO, priority 2022, published 2025).

The subject of data set [1] is MDA-MB-435. Description: Cell viability assay (MTT). It counts as cell-based, human. Conditions: for GI50: MTT, 72 hrs, read-out: GI50 MDA-MB-435; for GI50 / effect on viability of MDA-MB-435: 0-1000 nM; for effect on viability of MDA-MB-435: 72 h. As for the experimental part:
Cells plated at equal density were treated at 500 nM of compounds. After 72 hours, cell viability was measured by a MTT assay. n=3; * p<0.05, ** p<0.01, *** p<0.001.
(§1) Cells plated at equal density were treated at 250 nM of 4c at 250 nM.
(§2) Data from 3 biologic replicates each with 2 technical replicates. Four parameter dose-response curves generated using GraphPad Prism are shown.
[…]. GI50 was calculated using Graph pad Prism.
(§3) […] Using CellTiter 96 Non-Radioactive Cell Proliferation Assay (Promega, Corp.) according to manufactures' instructions, formazan was used as an indicator of viable cells at an absorbance 570 nm in a Tecan Microplate Reader M100. Data was calculated as fold change from vehicle and fitted using the 4′parameter logic nonlinear regression model in GraphPad Prism software. (n=3 biologic replicates: with 3 technical replicates each).
A range of compounds were tested by MTT assays for cell viability in MDA-MB-231 triple negative breast cancer (TNBC) cells and MDA-MB-435 HER2++ cancer cells. […].

In data set [2] the test system is MDA-MB-231. Description: Initial screening, inhibition of migration (wound gap). Format: cell-based. To be noted: Homo sapiens; for inhibition at 0.5 µM: read-out: Inh. of migration (converted). As for the experimental part:
In addition, the inhibition of migration of MDA-MB-231 was determined via the following procedure:
Prior to assays, cells were grown until 80-90% confluence was observed. We used a 75 cm^2 flask for 2.6×10^5 cells/mL in 10 mL and for a 25 cm^2 flask 1.44×10^5 cells/mL in 5 mL. The cells were washed with PBS to remove all traces of FBS. We added 2 mL for a 25 cm^2 flasks or 4 mL for a 75 cm^2 flasks trypsin, and incubated 5-10 min at 37° C. At the end of the incubation time, cells were re-suspended and counted with hemocytometer using 1:2 dilutions with Trypan blue. Subsequently, cell viability was calculated. In a 12 well tissue culture plate, we used the plastic pattern to draw a fine space with a fine marker on the bottom of the plate. Cells were seeded at 1.5-2.2×10^5 cells/mL in 1 mL and incubated for 24 h. Cells were then rinsed with PBS and incubated in starving media (0.5% FBS) overnight. All controls and drugs were tested in triplicate. The negative control for each drug was prepared according to the drug's DMSO concentration. […] The wound was made using a sterile pipette tip of 200 μL. Cells were then rinsed very gently with media without FBS and media with negative controls was added. After a 24 h incubation, the gap distance was evaluated using the software Lumera Infinity Analyze 6.4.0. Pictures were taken at 0, 8, 12 and 24 h using a 10× objective in an Inverted Laboratory Microscope Leica DM IL LED, and an Infinity1-3 3.1 Megapixel USB 2.0 camera CMOS. The percentage of migration was calculated using the following formula: […]

Data set [3] deals with MDA-MB-231. The data set is described as follows: Initial screening, SRB assay GI50. Format: cell-based. Conditions: Homo sapiens, 48 hrs. As for the experimental part:
(§4) For initial screening, the GIso of compounds 4a-4h in the cell lines MDA-MB-231, MDA-MB-435 and MCF-7 was determined via the SRB-assay for 48 hrs as follows:
(§5) A stock solution of compounds was prepared at 50 mM in 100% DMSO. For cells preparation, a flask of 75 cm^2 or 25 cm^2 were used for 2.6×10^5 cells/mL or 1.44×10^5 cells/mL, respectively, with an 80-90% of confluence. Cells were washed with PBS and trypsinized. The concentration of cells was determined using a 1:2 dilutions with Trypan Blue and a hemocytometer. After cell count, the concentration was adjusted to have a 7.0-10.0×10^4 cells/mL. Approximately 100 μL of cells suspension, compounds, control positive and control negative were added in triplicates to a 96 well plate. Positive control used was doxorubicin, and the negative control was DMSO 0.1%. All compounds (4a-h) at 50, 25, 12.5, 6.3, and 1.6 μM were incubated with cells at 37° C. for 48 hrs. For fixation, cold TCA 50% was used and incubated at 4° C. for 1 h. Wells were washed and dried prior to tincture with 100 μL of SRB 0.4%. To remove excess of SRB, acetic acid was used. For analysis, TRIS-BASE Solution (pH=10.5) was used and shaken prior to reading using an ELISA reader at 540 nm and the software SoftMax Pro 4.8. For each compound, 50% growth inhibition (GI50) was calculated from Sigmoidal dose-response curves (variable-slope) that were generated with data obtained from experiments carried out in triplicates (GI50 values were generated with GraphPad Prism V. 6.02, GraphPad Software, Inc.).
In general terms: Sulforhodamine B stains cellular protein and so reports cell mass.

Data set [4] deals with MDA-MB-435. Description: Initial screening, SRB assay GI50. It counts as cell-based. To be noted: Homo sapiens, 48 hrs, read-out: MDA-MB435 GI50. The method, then: as §4, §5
The subject of the next data set is MCF-7. The data set is described as follows: Initial screening, SRB assay GI50. It counts as cell-based. Conditions: Homo sapiens, MCF7, 48 hrs. As for the experimental part: as §4, §5
The test system of another data set is Rac. Description: Rac activation pulldown (GST-CRIB of PAK) in MDA-MB-435 cells. It counts as cell-based, human. Conditions: 24 hours.
Source text: (§6) Cells were lysed and equal amounts of proteins were subjected to pull-down assays using a GST-fusion protein of the Cdc42-rac interactive binding (CRIB) domain of P21-activated kinase (PAK). The pulldowns of Rac.GTP and whole cell lysates were western blotted with a pan Rac1/2/3 antibody.
as §6

Data set [5] relates to MDA-MB-231. Description: Cell viability assay (MTT). It counts as cell-based. Conditions: Homo sapiens; for inhibition at […]: MDA-MB-231, 250 nM for 48 hours (footnote a; title says 500 nM), read-out: % growth inhibition MDA-MB-231. The method, then:
Cells plated at equal density were treated at 500 nM of compounds. […]
as §1, §2
Cell viability relative to vehicle (100%) is shown.
as §3
A range of compounds were tested by MTT assays for cell viability in MDA-MB-231 triple negative breast cancer (TNBC) cells and MDA-MB-435 HER2++ cancer cells.

Usually GI50 stands for the concentration that inhibits growth by half. Regarding `CCn1c2ccccc2c2cc(-n3nnc(C(O)c4ccco4)c3-c3ccccc3)ccc21` (stereo not shown) [Compound 4a, (1-(9-ethyl-9H-carbazol-3-yl)-5-phenyl-1H-1,2,3-triazol-4-yl) (furan-2-yl) methanol], the cytotoxicity at 0.5 µM with MDA-MB-435 [1] (Homo sapiens, MDA-MB-435, 500 nM, 72 hours, read-out: decrease in cell viability, MDA-MB-435) was approximately 80%. The inhibition at 6.6 µM with MDA-MB-231 [2] (at 6.6 μM, read-out: Inh. of migration) was 55 ± 13.6%. The GI50 was 17.5 µM in the data set with MDA-MB-231 [3], 0.36 µM with MDA-MB-435 [4] and 20.6 µM in the data set on MCF-7.

In the case of `CCn1c2ccccc2c2cc(-n3nnc(C(O)c4cccs4)c3-c3ccccc3)ccc21` (stereo not shown) [Compound 4d, (1-(9-ethyl-9H-carbazol-3-yl)-5-phenyl-1H-1,2,3-triazol-4-yl) (thiophen-2-yl) methanol], in the data set on MDA-MB-231 [2], the inhibition at 0.5 µM was 8.7%. The inhibition at 4.1 µM with MDA-MB-231 [2] (at 4.1 μM, read-out: Inh. of migration) was 57.5 ± 10.6%. In addition, the GI50 with MDA-MB-231 [3] was 20.4 µM; in the data set with MDA-MB-435 [4], 19.6 µM; in the data set with MCF-7, 12 µM.

With `CCn1c2ccccc2c2cc(-n3nnc(C(O)c4ccc(OC)cc4)c3-c3ccccc3)ccc21` (stereo not shown) [Compound 4e, (1-(9-ethyl-9H-carbazol-3-yl)-5-phenyl-1H-1,2,3-triazol-4-yl) (4-methoxyphenyl) methanol], in the data set with MDA-MB-231 [2], the inhibition at 0.5 µM was 36.1%. Also, the inhibition at 5.3 µM in the data set on MDA-MB-231 [2] (at 5.3 μM, read-out: Inh. of migration) amounted to 57 ± 12.3%. Also, the GI50 was 26.2 µM in the data set on MDA-MB-231 [3], 32.9 µM in the data set with MDA-MB-435 [4] and 10.6 µM with MCF-7.

With `CCn1c2ccccc2c2cc(-n3nnc(C(O)c4ccc([N+](=O)[O-])cc4)c3-c3ccccc3)ccc21` (stereo not shown) [Compound 4f, (1-(9-ethyl-9H-carbazol-3-yl)-5-phenyl-1H-1,2,3-triazol-4-yl) (4-nitrophenyl) methanol], in the data set on MDA-MB-231 [2], the inhibition at 0.5 µM was 22.1%. Moreover, the inhibition at 2.2 µM with MDA-MB-231 [2] (at 2.2 μM, read-out: Inh. of migration) was determined as 61.1 ± 6.12%. In addition, the values for the GI50 with MDA-MB-231 [3], with MDA-MB-435 [4] and in the data set with MCF-7 were 11.2 µM, 7.5 µM and 9.7 µM, respectively.

On to `CCn1c2ccccc2c2cc(-n3nnc(C(O)c4ccc(C)cc4)c3-c3ccccc3)ccc21` (stereo not shown) [Compound 4g, (1-(9-ethyl-9H-carbazol-3-yl)-5-phenyl-1H-1,2,3-triazol-4-yl) (p-tolyl) methanol], for which, in the data set on MDA-MB-231 [2] (at 1.6 μM, read-out: Inh. of migration), the inhibition at 1.6 µM is 15.1 ± 10.7%. The GI50 in the data set with MDA-MB-231 [3] came out at 7.9 µM; in the data set with MDA-MB-435 [4], 2.2 µM; with MCF-7 it was 13.5 µM.

As to `CCn1c2ccccc2c2cc(-n3nnc(C(O)c4ccccc4)c3-c3ccccc3)ccc21` (stereo not shown) [Compound 4h, (1-(9-ethyl-9H-carbazol-3-yl)-5-phenyl-1H-1,2,3-triazol-4-yl) (phenyl) methanol], in the data set on MDA-MB-231 [2], the inhibition at 0.5 µM is 11.1%. Moreover, the inhibition at 4.9 µM in the data set with MDA-MB-231 [2] (at 4.9 μM, read-out: Inh. of migration) came to 65.4 ± 11.9%. Moreover, the values for the GI50 with MDA-MB-231 [3], with MDA-MB-435 [4] and in the data set on MCF-7 were 24.3 µM, 22.6 µM and 9.6 µM, respectively.

Regarding `CCn1c2ccccc2c2cc(-n3nnc(C#N)c3-c3ccccc3)ccc21` [Compound 5, 1-(9-ethyl-9H-carbazol-3-yl)-5-phenyl-1H-1,2,3-triazole-4-carbonitrile], the figures for the “% Rac inhibition” value in the data set on Rac (10 nM), in the data set with Rac (50 nM) and with Rac (100 nM) were approximately 30%, more than 90% and more than 90%, respectively. For the same compound, in the data set on MDA-MB-435 [1] (Homo sapiens, MDA-MB-435), the GI50 was found to be 0.045 µM. The “cytotoxicity relative to MBQ-167” value with MDA-MB-435 [1] (MDA-MB-435, 72 h GI50) is given as approximately 3 ×. The inhibition at […] in the data set with MDA-MB-231 [5] was 46%. Moreover, the cytotoxicity at […] in the data set on MDA-MB-231 [5] (250 nM, 48h, text prints MDA-MB-435 TNBC, read-out: inhibition of cell viability) was determined as 50%.

Take `CCOC(=O)c1nnn(-c2ccc3c(c2)c2ccccc2n3CC)c1-c1ccccc1` [Compound 6, Ethyl 1-(9-ethyl-9H-carbazol-3-yl)-5-phenyl-1H-1,2,3-triazole-4-carboxylate]: in the data set with MDA-MB-435 [1], the “effect on viability of MDA-MB-435” value is “reduced the viability”. Besides, in the data set with MDA-MB-435 [1] (Homo sapiens, MDA-MB-435), the GI50 was approximately 5 µM. The inhibition at […] in the data set on MDA-MB-231 [5] is 32%.

With `CCn1c2ccccc2c2cc(-n3nnc(C(=O)O)c3-c3ccccc3)ccc21` [Compound 7, 1-(9-Ethyl-9H-carbazol-3-yl)-5-phenyl-1H-1,2,3-triazole-4-carboxylic acid], the “effect on viability of MDA-MB-435” value in the data set with MDA-MB-435 [1] is recorded as “reduced the viability”. Further, the inhibition at […] with MDA-MB-231 [5] came out at 29%.

`CCn1c2ccccc2c2cc(-n3nnc(C(=O)N4CCOCC4)c3-c3ccccc3)ccc21` [Compound 8, (1-(9-ethyl-9H-carbazol-3-yl)-5-phenyl-1H-1,2,3-triazol-4-yl) (morpholino) methanone]: the “% Rac inhibition” value in the data set on Rac (250 nM) was 250 nM : <20%. Also, in the data set on MDA-MB-435 [1], the “effect on viability of MDA-MB-435” value is on record as “did not have an effect”. The GI50 in the data set with MDA-MB-435 [1] (Homo sapiens, MDA-MB-435) was approximately 1 µM. The inhibition at […] in the data set on MDA-MB-231 [5] is -11%.

As to `CCn1c2ccccc2c2cc(-n3nnc(C(=O)NCCCN4CCOCC4)c3-c3ccccc3)ccc21` [Compound 9, 1-(9-ethyl-9H-carbazol-3-yl)-N-(3-morpholinopropyl)-5-phenyl-1H-1,2,3-triazole-4-carboxamide], the “% Rac inhibition” value with Rac (250 nM) was 250 nM : <20%. Moreover, the “effect on viability of MDA-MB-435” value in the data set with MDA-MB-435 [1] is reported as “reduced the viability”. Also, the GI50 with MDA-MB-435 [1] (Homo sapiens, MDA-MB-435) was more than 10 µM. Further, the inhibition at […] in the data set with MDA-MB-231 [5] is 13%.

For `CCn1c2ccccc2c2cc(-n3nnc(C(=O)c4cccs4)c3-c3ccccc3)ccc21` [Compound 10, (1-(9-Ethyl-9H-carbazol-3-yl)-5-phenyl-1H-[1,2,3]triazol-4-yl)-thiophen-2-yl-methanone], the GI50 in the data set with MDA-MB-231 [3] amounted to 0.915 µM; with MDA-MB-435 [4], 23.3 µM; in the data set on MCF-7, 0.19 µM.
